# Assay: recombinant UMI read abundance after kanamycin selection (control-corrected) (log10(CPM+1)); higher = more efficient recombination; extreme values may be limits of the assay; sequences stand for … in AGTGCAGAGAAAATCGGCCAGTTTTCTCTGCCTGCAGTCCGCATGCCGTGGGACCCCTTGGGTTCTAACCTGTTGCCTAGATTTATGCAGCGGACTGCCTTTCTCCCAAAGTGATAAACCGG…AGGTTGGTTTCACT; site = the 11-nt donor
# In short: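 Two replicates each of selected and unselected plating were used in this pooled Escherichia coli screen of donor and donor-binding-loop pairs for the IS621 bridge recombinase. Selection was with IPTG (0.07 mM) and kanamycin. Counts of recombinant UMIs, amplified across the donor–target junction, were converted to CPM, averaged, scaled by control-derived factors and reported as log10(CPM+1).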
# 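Also: IS621 bridge recombinase in Escherichia coli cells against a fixed T5 target plasmid.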
row,Sequence,recombinant UMI read abundance (log10)
1,GGTTGGACATGGACCGGTTTTCCCGGTAATCCGTATTTGAC (site GTTTGGACTGT),0
2,GGTTTATCATGGACCGGTTTTCCCGGTAATCCGTATTTGAC (site GGTTTATCTGT),0.699
3,GTAAACCCATGGACCGGTTTTCCCGGTAATCCGTATTTGAT (site GTAAACCCTAT),1.45
4,GTAAGATCATGGACCGGTTTTCCCGGTAATCCGTATTTGGC (site GTAAGATCTGC),2.74
5,GTAAGCACATGGACCGGTTTTCCCGGTAATCCGTATTTGTA (site GTAAGCACTTA),2.03
6,GTAAGCACATGGACCGGTTTTCCCGGTAATCCGTATTTGTA (site GTACGCACTTA),0.0491
7,GTAAGCACATGGACCGGTTTTCCCGGTAATCCGTATTTGTA (site GTAGGCACTTA),0.614
8,GTAAGCACATGGACCGGTTTTCCCGGTAATCCGTATTTGTA (site GTATGCACTTA),0.495
9,GTAAGGCCATGGACCGGTTTTCCCGGTAATCCGTATTTGAC (site ATAAGGCCTGT),0
10,GTAAGGCCATGGACCGGTTTTCCCGGTAATCCGTATTTGAC (site CTAAGGCCTGT),0
11,GTAAGGCCATGGACCGGTTTTCCCGGTAATCCGTATTTGAC (site GTAAGGCCTGT),0
12,GTAAGGCCATGGACCGGTTTTCCCGGTAATCCGTATTTGAC (site TTAAGGCCTGT),0
13,GTAATCTCATGGACCGGTTTTCCCGGTAATCCGTATTTGAC (site GTAATCTCTGT),2.51
14,GTAATTGCATGGACCGGTTTTCCCGGTAATCCGTATTTGTA (site GTAATTGCTTA),2.57
15,GTACAGTCATGGACCGGTTTTCCCGGTAATCCGTATTTGAT (site GTACAGTCTAT),2.73
16,GTACGAGCATGGACCGGTTTTCCCGGTAATCCGTATTTGTG (site GTACGAGCTCA),1.39
17,GTACTATCATGGACCGGTTTTCCCGGTAATCCGTATTTGGC (site GTACTATCTGC),3.19
18,GTACTTCCATGGACCGGTTTTCCCGGTAATCCGTATTTGTC (site GTACTTCCTGA),1.93
19,GTAGAACCATGGACCGGTTTTCCCGGTAATCCGTATTTGCA (site GTAGAACCTTG),0
20,GTAGAGGCATGGACCGGTTTTCCCGGTAATCCGTATTTGTG (site GTAGAGGCTCA),1.58
21,GTAGAGGCATGGACCGGTTTTCCCGGTAATCCGTATTTGTG (site GTCGAGGCTCA),0.361
22,GTAGAGGCATGGACCGGTTTTCCCGGTAATCCGTATTTGTG (site GTGGAGGCTCA),0.704
23,GTAGAGGCATGGACCGGTTTTCCCGGTAATCCGTATTTGTG (site GTTGAGGCTCA),0.247
24,GTAGCAACATGGACCGGTTTTCCCGGTAATCCGTATTTGTA (site GTAGCAACTTA),2.18
25,GTAGGCTCATGGACCGGTTTTCCCGGTAATCCGTATTTGTG (site GTAGGCTCTCA),1.4

row,Sequence,recombinant UMI read abundance (log10)
1,GTAGGGGCATGGACCGGTTTTCCCGGTAATCCGTATTTGAA (site GTAGGGGCTTT),1.18
2,GTAGTCCCATGGACCGGTTTTCCCGGTAATCCGTATTTGCG (site GTAGTCACTCG),0.251
3,GTAGTCCCATGGACCGGTTTTCCCGGTAATCCGTATTTGCG (site GTAGTCCCTCG),0.791
4,GTAGTCCCATGGACCGGTTTTCCCGGTAATCCGTATTTGCG (site GTAGTCGCTCG),0.16
5,GTAGTCCCATGGACCGGTTTTCCCGGTAATCCGTATTTGCG (site GTAGTCTCTCG),2.33
6,GTAGTCCCATGGACCGGTTTTCCCGGTAATCCGTATTTGGT (site GTAGTCCCTAC),0.588
7,GTAGTCGCATGGACCGGTTTTCCCGGTAATCCGTATTTGCT (site GTAGTCGCTAG),2.87
8,GTAGTCGCATGGACCGGTTTTCCCGGTAATCCGTATTTGCT (site GTAGTCGCTCG),1.77
9,GTAGTCGCATGGACCGGTTTTCCCGGTAATCCGTATTTGCT (site GTAGTCGCTGG),2.09
10,GTAGTCGCATGGACCGGTTTTCCCGGTAATCCGTATTTGCT (site GTAGTCGCTTG),1.57
11,GTAGTCGCATGGACCGGTTTTCCCGGTAATCCGTATTTGGG (site GTAGTCGCTCA),0.214
12,GTAGTCGCATGGACCGGTTTTCCCGGTAATCCGTATTTGGG (site GTAGTCGCTCC),0.132
13,GTAGTCGCATGGACCGGTTTTCCCGGTAATCCGTATTTGGG (site GTAGTCGCTCG),0.0493
14,GTAGTCGCATGGACCGGTTTTCCCGGTAATCCGTATTTGGG (site GTAGTCGCTCT),0.661
15,GTAGTTACATGGACCGGTTTTCCCGGTAATCCGTATTTGAC (site GTAGATACTGT),2.18
16,GTAGTTACATGGACCGGTTTTCCCGGTAATCCGTATTTGAC (site GTAGCTACTGT),1.23
17,GTAGTTACATGGACCGGTTTTCCCGGTAATCCGTATTTGAC (site GTAGGTACTGT),0.575
18,GTAGTTACATGGACCGGTTTTCCCGGTAATCCGTATTTGAC (site GTAGTTACTGT),2.74
19,GTAGTTCCATGGACCGGTTTTCCCGGTAATCCGTATTTGGT (site GTAGTTCCTAC),0.849
20,GTAGTTCCATGGACCGGTTTTCCCGGTAATCCGTATTTGGT (site GTCGTTCCTAC),0
21,GTAGTTCCATGGACCGGTTTTCCCGGTAATCCGTATTTGGT (site GTGGTTCCTAC),0.00522
22,GTAGTTCCATGGACCGGTTTTCCCGGTAATCCGTATTTGGT (site GTTGTTCCTAC),0.00774
23,GTATCAGCATGGACCGGTTTTCCCGGTAATCCGTATTTGTC (site GTATCAGCTGA),3.03
24,GTATCTACATGGACCGGTTTTCCCGGTAATCCGTATTTGCT (site GTATCTACTAG),1.66
25,GTATCTCCATGGACCGGTTTTCCCGGTAATCCGTATTTGTA (site GTATCTCCTTA),0.705

row,Sequence,recombinant UMI read abundance (log10)
1,GTATGCACATGGACCGGTTTTCCCGGTAATCCGTATTTGTC (site GTATGCACTAA),0.663
2,GTATGCACATGGACCGGTTTTCCCGGTAATCCGTATTTGTC (site GTATGCACTCA),0.0163
3,GTATGCACATGGACCGGTTTTCCCGGTAATCCGTATTTGTC (site GTATGCACTGA),3.13
4,GTATGCACATGGACCGGTTTTCCCGGTAATCCGTATTTGTC (site GTATGCACTTA),1.33
5,GTATGCACATGGACCGGTTTTCCCGGTAATCCGTATTTGTT (site GTATGCACTAA),1.32
6,GTATGCACATGGACCGGTTTTCCCGGTAATCCGTATTTGTT (site GTATGCACTCA),0.25
7,GTATGCACATGGACCGGTTTTCCCGGTAATCCGTATTTGTT (site GTATGCACTGA),1.66
8,GTATGCACATGGACCGGTTTTCCCGGTAATCCGTATTTGTT (site GTATGCACTTA),0.606
9,GTATGTACATGGACCGGTTTTCCCGGTAATCCGTATTTGAC (site GTAAGTACTGT),0.262
10,GTATGTACATGGACCGGTTTTCCCGGTAATCCGTATTTGAC (site GTACGTACTGT),2.5
11,GTATGTACATGGACCGGTTTTCCCGGTAATCCGTATTTGAC (site GTAGGTACTGT),0.95
12,GTATGTACATGGACCGGTTTTCCCGGTAATCCGTATTTGAC (site GTATGTACTGT),2.9
13,GTATTAACATGGACCGGTTTTCCCGGTAATCCGTATTTGCA (site GTATTAACTTG),2.37
14,GTATTATCATGGACCGGTTTTCCCGGTAATCCGTATTTGTG (site GTATTATCTCA),2.22
15,GTATTCACATGGACCGGTTTTCCCGGTAATCCGTATTTGTA (site GTATACACTTA),0.154
16,GTATTCACATGGACCGGTTTTCCCGGTAATCCGTATTTGTA (site GTATCCACTTA),0.507
17,GTATTCACATGGACCGGTTTTCCCGGTAATCCGTATTTGTA (site GTATGCACTTA),0.0233
18,GTATTCACATGGACCGGTTTTCCCGGTAATCCGTATTTGTA (site GTATTCACTTA),2.35
19,GTATTGACATGGACCGGTTTTCCCGGTAATCCGTATTTGTG (site GTATTGACTCA),1.4
20,GTCAAAGCATGGACCGGTTTTCCCGGTAATCCGTATTTGGT (site GTCAAAGCTAC),2.11
21,GTCAACACATGGACCGGTTTTCCCGGTAATCCGTATTTGTC (site GTCAACACTGA),2.35
22,GTCAGATCATGGACCGGTTTTCCCGGTAATCCGTATTTGCG (site GTCAGATCTCG),1.77
23,GTCAGTGCATGGACCGGTTTTCCCGGTAATCCGTATTTGCA (site GTCAGTGCTTG),2.49
24,GTCCAGGCATGGACCGGTTTTCCCGGTAATCCGTATTTGTA (site GTCCAGGCTTA),0.928
25,GTCCTATCATGGACCGGTTTTCCCGGTAATCCGTATTTGGA (site GTCCTATCTTC),1.41
